According to article PMC12876990, “Targeting secreted PLA2 interactions with EGFR and vimentin to arrest prostate tumour growth” (Cell Death & Disease, 2025):
Square brackets hold non-standard residues; d marks the D form. Peptide text beside a SMILES is read from it. 2Nal = N[C@@H](Cc1ccc2ccccc2c1)C(=O)O

Assays:
[1] = system: PCa cell lines LNCaP, PC-3 and DU145; test: Cell permeability of c2 by live cell confocal imaging of its autofluorescence; format: cell-based; details: 100 µM, 24 hours
Method: The naphthyl groups in the structure of c2 give the compound a unique autofluorescence emission spectral signature, which was characterised (Fig. S3a, b), allowing the direct imaging of c2 internalisation and localisation. […] Internalisation confirmed via z-stack (Fig. S3c).
For all live cell imaging, cells were seeded on a 24-well glass-bottom Senso plates (Greiner Bio-one) and imaged at 37 °C and 5% CO2 with the LSM 800 (Zeiss). For c2 imaging, cells were incubated with c2 100 µM for 24 hours before excitation with 488 nm and emission 500-700 nm detected. For hGIIA entry, PC-3, LNCaP, DU145 and RA57 hGIIA/AF647 in cells were stained with 30 nM DAPI for 10 mins, cells were washed with PBS and then stained with 1 μg/mL of propidium iodide for 10 mins to confirm cell viability. Cells were washed three times with PBS and then cells were incubated with 200 ng/mL hGIIA/AF647, with entry imaged over 16 hours. Imaging parameters were kept consistent across all time points and cell lines.

[2] = 28-day oral toxicity study: histopathology; format: in vivo, male Sprague Dawley rats; details: Gr 3, 20 mg/kg vs Gr 1
Method: organs. Tissues and carcas ses were placed in 10% formalin. The tissues to be processed for histopathological examinations were fixed for at least 48 hours prior to cassette preparation.
The organ weights and gross pathology changes a re included in a spreadsheet as an appendix to the report (Appendix C Study Data Spreadsheets).
3.12. Tissue proces sing / Slide preparation
The tissues were placed in labelled cassette s and placed in an automated tissue processor and taken through several stages of alcohol dehydration, solvent clearing and wax infiltration.
Infiltrated tissues were embedded in wax blo ck s, which were sectioned on a microtome at between 4 and 6 µm. Sections were placed on pre-labelled glass slides and stained with haematoxylin and eo sin (H&E). Stained section s were dehydrated, then solvent cl eared and […]
Histopathological examinations were p erformed on all animals in the vehicle control and high dose treated groups (main study) on the following tissues/organs: adrenal glands, bone marrow, brain, epididymis, heart, kidney, liver, lung, lymph node: mesenteric, prostate, seminal v esicle s with coagulating glands, small and l arge intesti ne (including Peyer’s patches), spinal cord, spleen, stomach, thymus, thyroid gland, trachea, testes and urinary bladder. Slides were evaluated for histology change s under light microscopy at a magnification of 100 to 1000 times.
Individual histopathology results and a summar y are attached a s an app endix to the report (Appendix E Histopathology).
3.14. Statistical analyses
Clinical observations, detailed clinical observations, functional observations, blood and urine analyses and histopathology were summarised by descriptive analysis.
Statistical analyses, consisting of unpaired t-tests, were performed on measured variables: percentage body weight gain s, food consumption and organ weights as a percentage of body weight. A significance level of P < 0.05 was used for all tests.
St Geo rge C lini c al S chool

[3] = 28-day oral toxicity study: feed consumption
Method: The calculated volumetric do se wa s administered to each rat orally by gav age, using a plastic
intragastric cannula attached to a 3 mL syringe.
Two dose level s of 1 and 20 mg/kg of the te st it em susp ension were administered to each rat
every 3 days (total 10 do ses) for 28 days. This c orresponded to volumetric dose of 10.09 and
10.23 mL/kg. The volumetric dose administered to each animal was calculated on Days 1, 8, 15
Feed consumption was monitored weekly over the 28-day experimental period in all groups
and was continued for a further 2 weeks in the recovery groups (42-day experimental
period). Feed intake was monitored by providing a known mass of feed to each cage and
subtracting the mas s remaining at the end of th e weekly period. Animals were fa sted
overnight on either Day 28 (main groups) or Day 42 (recovery groups).

CC(C)C[C@@H]1NC(=O)[C@H](Cc2ccc3ccccc3c2)NC(=O)[C@H](CCCNC(=N)N)NC(=O)[C@H](Cc2ccc3ccccc3c2)NC(=O)[C@H](CO)NC1=O [c2, cyclo-((2-Nal)-Leu-Ser-(2-Nal)-Arg)] (cyclo([2Nal]LS[2Nal]R))
c2 detection in cells [1]: detected in all cell lines | histopathology: large intestine: colon [2]: No treatment-related differences | histopathology: liver [2]: No treatment-related differences | histopathology: small intestine: ileum [2]: No treatment-related differences | histopathology: stomach [2]: No treatment-related differences | feed intake vs control ([3]; 28-day and 42-day experimental period): similar | Mean feed intake/cage/week ([3]; Week 1, Gr 2, 1 mg/kg, 5 animals/cage): 801 ± 26.9 g | Mean feed intake/cage/week ([3]; Week 1, Grs 3 & 5, 20 mg/kg): 819 ± 55.4 g | Mean feed intake/cage/week ([3]; Week 2, Gr 2, 1 mg/kg): 839 ± 12.0 g | Mean feed intake/cage/week ([3]; Week 2, Grs 3 & 5, 20 mg/kg): 877 ± 45.1 g | Mean feed intake/cage/week ([3]; Week 3, Gr 2, 1 mg/kg): 845 ± 0 g | Mean feed intake/cage/week ([3]; Week 3, Grs 3 & 5, 20 mg/kg): 916 ± 35.2 g | Mean feed intake/cage/week ([3]; Week 4, Grs 3 & 5, 20 mg/kg): 815 ± 42.0 g | Mean feed intake/cage/week ([3]; Week 5, Gr 5 recovery, 20 mg/kg): 1013 g | Mean feed intake/cage/week ([3]; Week 6, Gr 5 recovery, 20 mg/kg): 802 g | Mean feed intake/cage/week ([3]; week 4, Gr 2, 1 mg/kg): 775 ± 27.6 g
